Source: publication PMC7463999, “Antioxidant, Anti-inflammatory and Neuroprotective Profiles of Novel 1,4-Dihydropyridine Derivatives for the Treatment of Alzheimer’s Disease” (Antioxidants, 2020)
Values joined by “and” are separate entries in the source; they are usually repeats but may differ in a detail not shown here. Equal values may be shown once. Read-outs that look alike come from different tables or passages of the source.

What was measured:
[1] = Oxygen Radical Absorbance Capacity (ORAC) assay; conditions: Trolox equivalents, ORAC of Trolox = 1.0; AAPH, fluorescein
[2] = Blood-brain barrier permeation assay (PAMPA), porcine brain lipid; assay type: in vitro ADME; conditions: for PAMPA Prediction: BBB permeability class from Pe; for Prediction of the BBB passive permeability: PAMPA control compounds
[3] = system: blood-brain barrier (passive diffusion); experiment: as above; assay type: in vitro ADME
[4] = system: voltage-dependent Ca^2+ channels (VDCC); experiment: Voltage dependent calcium channels blockade assay (Fluo-4, 70 mM K+); assay type: cell-based, human; conditions: compounds at 10 μM, SH-SY5Y, basal = 100% response
Experimental: Free cytosolic Ca^2+ was measured using the fluorescence Ca^2+ indicator Fluo-4/AM. SH-SY5Y cells were seeded in 96-well black bottom transparent plates at a density of 60,000 cells per well and cultured until they reach confluence. Cells were incubated with the Ca^2+ sensitive dye Fluo-4/AM at 5 µM in Krebs-HEPES buffer (KH) (145 mM NaCl, 4.9 mM KCl, 1.2 mM MgCl2, 2 mM CaCl2, 10 mM HEPES, 11 mM glucose, pH 7.4), and 0.05% pluronic acid, for 1 h at 37 °C in the dark. Then, cells were washed twice with KH solution to remove the excess of probe and compounds in solution were added. Test compounds at 10 µM were incubated 10 min before K^+ 70 mM was applied to trigger cytosolic Ca^2+ increase. Fluorescence was measured in a fluorescence microplate reader (FLUOstar Optima, BMG, Ortenberg, Baden-Wuerttemberg, Germany) at excitation and emission wavelengths 485 and 520 nm, respectively. To normalize Fluo-4 signals, Triton X-100 (5%) and subsequently MnCl2 1 M were applied to the cells to register maximal and minimal fluorescence, respectively. Data were calculated as a percentage of Fluorescence increment with respect to Fmax − Fmin. The percentage of response was calculated considering basal conditions as 100% response.
Voltage dependent Calcium Channel Blockade Assay
Free cytosolic Ca2+ was measured using the fluorescence Ca2+ indicator Fluo-4/AM.
SH-SY5Y cells were seeded in 96-well black bottom transparent plates at a density of 60,000 cells per well until reaching confluence. Cells were incubated with the Ca2+ sensitive dye fluo-4 AM at 5 µM in Krebs-Hepes buffer (KH) (145 mM NaCl, 4.9 mM KCl, 1.2 mM MgCl2, 2 mM CaCl2, 10 mM HEPES, 11 mM glucose, pH 7.4), and 0.05 % pluronic acid, for 1 h at 37 °C in the dark. Then, cells were washed twice with KH solution to remove the excess of probe and compounds in solution were added. Tested compounds at 10 µM were incubated 10 min before K+ 70 mM was applied to evoke the increment of cytosolic Ca2+. The experiments were analyzed at excitation and emission wavelengths of 485 and 520 nm, respectively, and fluorescence was measured in a fluorescence microplate reader (FLUOstar Optima, BMG, Germany). To normalize Fluo-4 signals, Triton X-100 (5 %) and subsequently MnCl2 1 M were applied to cells for registering both maximal and minimal fluorescence, respectively. Data were calculated as % F increment respect to Fmax – Fmin. % of blockade was calculated considering basal conditions as 100 % response.
Then, the donor filter plate was carefully put on the acceptor plate to form a “sandwich”, which was left undisturbed for 4 h at 25 °C. During this time, the compounds diffused from the donor plate through the polar brain lipid membrane (area = 0.28 cm2) into the acceptor plate. After incubation, the donor plate was carefully removed. UV plate reader determined the concentration of compounds and commercial drugs in both acceptor and […]

primary glial cultures [5] = experiment: Cytotoxicity (gliotoxicity) in primary glial cultures, MTT; conditions: 24 h
Experimental: (§1) cell line SH-SY5Y and primary glial cultures. Viability was measured as
(§2) MTT reduction in presence of increasing concentrations of derivatives.
(§3) Values are expressed as LD50 calculated from dose-response curves of four
(§4) different concentrations. Data are expressed as mean  SEM of five
different experiments in triplicate.
(§5) Mixed glial cultures were obtained from cerebral cortex of 2-5-day-old Sprague-Dawley rats. After removal of blood vessels and meninges, the forebrains were dissociated in DMEM/F12 medium. After mechanical dissociation, cells were plated (3x10^5 cells/ml) in DMEM/F12 medium with 20 % fetal bovine serum (FBS) and 1 % penicillin/streptomycin (10,000 units), at 37 °C and in a 5 % CO2-supplemented air atmosphere. After 5 days, medium was substituted by DMEM/F12 medium with 10 %
(§6) FBS. Cells were cultured for 7-10 days before treatment.
(§7) SH-SY5Y or primary glial cells were cultured in 96-well plates for 24 h. Then, cells
(§8) were treated with the compounds at 10, 30 and 100 µM in the corresponding culture media
(§9) with 1 % FBS After 24 h, cell viability was assessed by the MTT-reduction assay. Control
(§10) cells were incubated with the same concentration of DMSO (0.1 % final concentration)
Viability assay by MTT-reduction
(§11) SH-SY5Y, primary glial culture cells and rat hippocampal slices viability was
measured by the MTT assay [11].

[6] = system: neuroblastoma cell line SH-SY5Y; experiment: Cytotoxicity (neurotoxicity) in SH-SY5Y, MTT; conditions: 24 h
Experimental: (§12) LD50 in SH-SY5Y and primary glial culture cells
as §1, §2, §3, §4
different experiments in triplicate.
as §7, §8, §9, §10
Viability assay by MTT-reduction
as §11
(§13) measured by the MTT assay [11]. This method is based on the cleavage of the tetrazolium
(§14) ring of MTT by active dehydrogenases, generating a formazan precipitate. At the end of
(§15) the neuroprotection or toxicity experiments, an MTT solution was added to each well to
(§16) reach a final concentration of 0.5 mg/mL. After 2 additional hours of incubation, the
(§17) solution was replaced by 100 or 300 µL of DMSO to solubilize the formazan precipitate.
(§18) in control cells was considered as 100 % of cell survival and used to reference all

DPPH reduction assay = conditions: DPPH 100 µM, 1 h in the dark
Experimental: The final solution was incubated during 1 h in the dark. […] Results are expressed as a percentage of DPPH reduction by subtracting blank absorbance (Absblank) to sample absorbance (Abssample) and corrected by control absorbance, (Abscontrol, DPPH alone, as expressed below: % DPPH reduction = [100 − ((Abssample − Absblank) × 100/Abscontrol)](1)
Briefly, the compounds under assay (150 µL) at the desired concentration (1, 10, 60 and 100 µM) in methanol/water (80/20) were added to a solution of DPPH in methanol/water (80/20) (150 µL, 100 µM), in a clear bottom 96-well plate, and the final solution was incubated 1 h in the dark. Then, DPPH absorbance of blank (methanol/water), control
Optima plate-reader (BMG Labtech, Ortenberg, Germany) in duplicate.
Results are expressed as % of absorbance (Abs) reduction of control after subtracting blank absorbance, as expressed
% DPPH reduction = [100 – (Abssample-Absblank) x 100]/Abscontrol

[7] = system: primary glial cultures stimulated with LPS; experiment: Nitrite production reduction (Griess) in LPS-stimulated mixed primary glial cultures; assay type: cell-based, rat; conditions: Rattus norvegicus; LPS 1 μg/mL, 24 h pre-incubation, 18 h co-incubation
[8] = system: SH-SY5Y human neuroblastoma cells; experiment: Neuroprotection against rotenone/oligomycin A (oxidative stress), MTT; conditions: 1 μM, rotenone 30 μM / oligomycin A 10 μM, 24 h; for percentage of survival, R/O toxicity: basal = 100%
Experimental: (§19) Cells were pre-incubated with the corresponding compound at 1 μM in neuroblastoma culture medium. After 24 h, the medium was removed and replaced with 1% FBS neuroblastoma culture media containing the corresponding compound at 1 µM and the toxic stimuli, namely a mixture of rotenone and oligomycin A (R/O, 30 μM/10 μM, respectively), okadaic acid (OA) at 20 nM or a high concentration of KCl (70 mM). Cells were co-incubated for further 24 h with the R/O mixture or KCl solution, or 18 h with the OA solution. […] Control cells were incubated with the same amount of dimethyl sulfoxide (DMSO) without any drug. After the co-incubation period, cell viability was assessed by the 3-(4,5-dimethylthiazol-2-yl)-2,5-diphenyltetrazolium bromide (MTT) reduction method [56]; basal condition was considered as 100% survival.
(§20) Neuroprotection in the SH-SY5Y neuroblastoma cell line
(§21) A pre- and co-incubation protocol was followed. Cells were pre-incubated with the
(§22) corresponding compound at 1 M in neuroblastoma culture medium. After 24 h, the
(§23) medium was removed and replaced with 1% FBS neuroblastoma culture media
(§24) containing the corresponding compound at 1 µM and the toxic stimuli, namely a mixture
(§25) of rotenone and oligomycin A (30 M/10 M respectively), okadaic acid at 20 nM or a
(§26) high concentration of potassium chloride (70 mM). Cells were co-incubated for further
(§27) 24 h with the rotenone and oligomycin A or potassium chloride solution, or 18 h with the
(§28) okadaic acid solution. Control cells were incubated with the same amount of DMSO
(§29) and reference compounds in the rotenone-oligomycin A, okadaic acid or high
(§30) concentration of potassium models respectively. After the co-incubation period, cell
(§31) viability was assessed by the MTT-reduction method [11] considering basal conditions
Viability assay by MTT-reduction
as §11, §13, §14, §15, §16, §17, §18
(§32) treatments. The percentage of protection was calculated as follows: the percentage of cell
(§33) survival obtained with the toxic stimuli-treated cells subtracted to 100 was normalized to
(§34) 100 % of cell death. The percentage of protection was obtained by subtracting the
(§35) percentage of cell death in presence of the tested compound to 100 %.

GSK-3β = GSK-3β (Homo sapiens, UniProt P49841); experiment: GSK-3β inhibition, Kinase-Glo luminescence assay
Chain of GSK-3β (P49841 whole entry): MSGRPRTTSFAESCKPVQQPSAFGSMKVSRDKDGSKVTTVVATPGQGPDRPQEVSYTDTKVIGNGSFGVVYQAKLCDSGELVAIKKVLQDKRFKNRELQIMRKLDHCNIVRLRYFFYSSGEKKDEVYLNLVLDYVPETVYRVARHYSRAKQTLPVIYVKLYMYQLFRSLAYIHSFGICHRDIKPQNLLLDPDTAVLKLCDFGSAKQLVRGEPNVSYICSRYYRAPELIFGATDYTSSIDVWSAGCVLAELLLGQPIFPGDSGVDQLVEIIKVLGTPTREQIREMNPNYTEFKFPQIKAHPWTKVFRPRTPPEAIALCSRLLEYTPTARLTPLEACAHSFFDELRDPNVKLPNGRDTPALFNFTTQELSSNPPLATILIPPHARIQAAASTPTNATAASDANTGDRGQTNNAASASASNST

[9] = system: SH-SY5Y human neuroblastoma cells; experiment: Neuroprotection against okadaic acid (tau hyperphosphorylation), MTT; conditions: 18 h; for percentage of protection, okadaic acid toxicity: 1 μM, OA 20 nM; for viability at 1 µM: Homo sapiens, SH-SY5Y, read-out: cell viability (percentage survival), okadaic acid toxicity
Experimental: as §19, §20, §21, §22, §23, §24, §25, §26, §27, §28, §29, §30, §31
Viability assay by MTT-reduction
as §11, §13, §14, §15, §16, §17, §18, §32, §33, §34, §35

[10] = system: SH-SY5Y human neuroblastoma cells; experiment: Neuroprotection against 70 mM K+ ([Ca2+]c overload), MTT; conditions: 1 μM, 24 h, basal = 100%
Experimental: as §19, §20, §21, §22, §23
containing the corresponding compound at 1 µM and the toxic stimuli, namely a mixture […]
viability was assessed by the MTT-reduction method [11] considering basal conditions […]
measured by the MTT assay [11]. […]
treatments. The percentage of protection was calculated as follows: the percentage of cell […]

[11] = system: neuroblastoma cell line SH-SY5Y; conditions: human, 24 h
Experimental: as §12, §1, §2, §3, §4
different experiments in triplicate.
as §7, §8, §9, §10
Viability assay by MTT-reduction
as §11, §13, §14, §15, §16, §17, §18

primary glial cultures [12] = conditions: Sprague-Dawley, rat, 24 h
Experimental: as §1, §2, §3, §4
different experiments in triplicate.
as §5, §6, §7, §8, §9, §10
Viability assay by MTT-reduction
as §11
measured by the MTT assay [11].

rat hippocampal slices = conditions: OA 1 μM alone, 6 h
Experimental: Finally, cell viability and ROS production were measured.
After the co-incubation period, cell
as §31
Viability assay by MTT-reduction
as §11, §13, §14, §15, §16, §17, §18, §32, §33, §34, §35
Acute treatment in rat hippocampal slices
3-4 months-old Sprague-Dawley rats were beheaded and both hippocampi dissected
0.5 mM CaCl2; 11 mM glucose and 200 mM sucrose at pH 7.4). […]
All values are expressed as mean ± S.E.M. IC50 and LD50 values were calculated by […]

[13] = PAMPA, 100 µM, PBS pH 7.4, 4 h at 25 °C, mean ± SEM, read-out: PAMPA Pe
[14] = pH 7.4, PAMPA control compounds, Pe ± SD, read-out: Pe ± SD

| Structure (SMILES) | PAMPA Prediction [2] | Papp at 4 h, 100 µM [3, 13] | IC50 (DPPH reduction assay) | EC50 [7] | IC50 (GSK-3β) | Ki (GSK-3β) | ORAC (T. Eq.) [1] | VDCC % Response [4] | Glial cultures LD50 (primary glial cultures [5]) | SH-SY5Y LD50 [6] | other results |
| --- | --- | --- | --- | --- | --- | --- | --- | --- | --- | --- | --- |
| Cc1[nH]nc2c1C(c1ccccc1Cl)C(C#N)=C(N)N2 (stereo not drawn) [4c] | CNS+ | 9.4 ± 3.5 ×10⁻⁶ cm/s | 23.3 ± 2.6 µM | 14.4 ± 2.19 µM | 1.51 ± 1.1 µM | 1.06 µM | 0.94 T. Eq. and 0.94 ± 0.04 T. Eq. | 58.7 ± 6.8% | > 100 µM | > 100 µM | percentage of survival, R/O toxicity [8]: 81.3%; percentage of protection, okadaic acid toxicity [9]: over 50%; viability at 1 µM [9]: 74% |
| Cc1[nH]nc2c1C(c1ccc(Cl)cc1)C(C#N)=C(N)N2 (stereo not drawn) [4e] | CNS+ | 12.9 ± 3.6 ×10⁻⁶ cm/s | 20.9 ± 5.91 µM | 4.4 ± 0.35 µM | 1.94 ± 0.5 µM | 1.36 µM | 0.66 T. Eq. and 0.66 ± 0.07 T. Eq. | 6.46% and 6.46 ± 1.6% | > 100 µM | > 100 µM | percentage of survival, R/O toxicity [8]: 73.6%; viability at 1 µM [9]: 64.6% |
| Cc1[nH]nc2c1C(c1cccc([N+](=O)[O-])c1)C(C#N)=C(N)N2 (stereo not drawn) [4h] | CNS± | 2.1 ± 1 ×10⁻⁶ cm/s | 24.7 ± 4.03 µM | 3.5 ± 0.29 µM | 0.82 ± 0.2 µM | 0.57 µM | 0.73 T. Eq. and 0.73 ± 0.09 T. Eq. | 75.5 ± 2.7% | > 100 µM | > 100 µM | percentage of protection, okadaic acid toxicity [9]: 34.6%; viability at 1 µM [9]: 60.8% |
| Cc1[nH]nc2c1C(c1cccs1)C(C#N)=C(N)N2 (stereo not drawn) [4j] | CNS+ | 8.8 ± 4.4 ×10⁻⁶ cm/s | 20.9 ± 4.23 µM | 5.4 ± 0.27 µM | 1.74 ± 1 µM | 1.22 µM | 2.93 T. Eq. and 2.93 ± 0.15 T. Eq. | 60.6 ± 6.8% | > 100 µM | > 100 µM | viability at 1 µM [9]: 64%; fold more potent GSK-3β inhibitor than 4l (GSK-3β; ratio of IC50 values): 5 fold |
| O=C1O[C@H]([C@@H](O)CO)C(O)=C1O [Ascorbic ac., Ascorbic acid, reference compound] | – | – | 61.9 ± 4.96 µM | – | – | – | – | – | – | – | – |
| Cn1c(=O)c2c(ncn2C)n(C)c1=O [Caffeine, reference compound] | – | – | – | – | – | – | – | – | – | – | Prediction of the BBB passive permeability [2]: CNS (-) |
| COc1ccc2[nH]cc(CCNC(C)=O)c2c1 [Melatonin] | – | – | – | – | – | – | – | – | – | – | percentage of protection, R/O toxicity [8]: 52.5%; SH-SY5Y LD50 [11]: > 100 µM; Glial cultures LD50 (primary glial cultures [12]): > 100 µM |
| COCCOC(=O)C1=C(C)NC(C)=C(C(=O)OC(C)C)C1c1cccc([N+](=O)[O-])c1 (stereo not drawn) [Nimodipine, reference compound] | – | – | – | – | – | – | – | 51.0 ± 2.6% | – | – | – |
| C=C1[C@@H](O)[C@@H]2O[C@]3(CC[C@H](/C=C/[C@@H](C)[C@@H]4CC(C)=C[C@@]5(O[C@H](C[C@@](C)(O)C(=O)O)CC[C@H]5O)O4)O3)CC[C@H]2O[C@@H]1[C@@H](O)C[C@H](C)[C@H]1O[C@@]2(CCCCO2)CC[C@H]1C [OA, okadaic acid] | – | – | – | – | – | – | – | – | – | – | reduction of cell viability of hippocampal slices (rat hippocampal slices): 30% |
| CN1C(C(=O)Nc2ccccn2)=C(O)c2ccccc2S1(=O)=O [Piroxicam, reference compound] | – | – | – | – | – | – | – | – | – | – | Prediction of the BBB passive permeability [2]: CNS (+/-); Papp at 4 h, 100 µM [3, 14]: 3.3 ± 0.1 ×10⁻⁶ cm/s |
| CC(=O)[C@H]1CC[C@H]2[C@@H]3CCC4=CC(=O)CC[C@]4(C)[C@H]3CC[C@]12C [Progesterone, reference compound] | – | – | – | – | – | – | – | – | – | – | Prediction of the BBB passive permeability [2]: CNS (+/-); Papp at 4 h, 100 µM [3, 14]: 2.2 ± 2.8 ×10⁻⁶ cm/s |

Continued, in another order:

| PAMPA Prediction [2] | Papp at 4 h, 100 µM [3, 13] | IC50 (DPPH reduction assay) | EC50 [7] | IC50 (GSK-3β) | Ki (GSK-3β) | Structure (SMILES) | ORAC (T. Eq.) [1] | VDCC % Response [4] | Glial cultures LD50 (primary glial cultures [5]) | SH-SY5Y LD50 [6] | other results |
| --- | --- | --- | --- | --- | --- | --- | --- | --- | --- | --- | --- |
| CNS+ | 8 ± 1.5 ×10⁻⁶ cm/s | 25.2 ± 7.91 µM | 5.2 ± 1.89 µM | – | – | Cc1[nH]nc2c1C(c1ccccc1)C(C#N)=C(N)N2 (stereo not drawn) [4a] | 0.69 ± 0.04 T. Eq. | 72.1 ± 5.8% | > 100 µM | > 100 µM | – |
| CNS+ | 4.8 ± 2.6 ×10⁻⁶ cm/s | 22.8 ± 6.68 µM | 5.7 ± 0.62 µM | 2.14 ± 1.1 µM | 1.5 µM | Cc1[nH]nc2c1C(c1ccc(F)cc1)C(C#N)=C(N)N2 (stereo not drawn) [4b] | 1.86 T. Eq. and 1.86 ± 0.08 T. Eq. | 48.5 ± 7.6% | > 100 µM | > 100 µM | percentage of protection, R/O toxicity [8]: 62.7%; percentage of survival, R/O toxicity [8]: 84.3% |
| CNS+ | 11.8 ± 3 ×10⁻⁶ cm/s | 22.8 ± 4.63 µM | 0.78 ± 1.98 µM | 1.05 ± 0.3 µM | 0.74 µM | Cc1[nH]nc2c1C(c1cccc(Cl)c1)C(C#N)=C(N)N2 (stereo not drawn) [4d] | 0.63 T. Eq. and 0.63 ± 0.09 T. Eq. | 76.0 ± 6.5% | > 100 µM | > 100 µM | percentage of protection, R/O toxicity [8]: 32.0%; percentage of survival, R/O toxicity [8]: 72.3%; survival percentage, high K+ toxicity [10]: 61.4% |
| CNS+ | 10.1 ± 5.4 ×10⁻⁶ cm/s | 21.6 ± 3.99 µM | 10.1 ± 0.72 µM | 0.83 ± 0.3 µM | 0.58 µM | Cc1[nH]nc2c1C(c1ccccc1Br)C(C#N)=C(N)N2 (stereo not drawn) [4f] | 1.00 ± 0.16 T. Eq. | 7.39% and 7.39 ± 2.0% | > 100 µM | > 100 µM | percentage of protection, okadaic acid toxicity [9]: over 50% |
| CNS± | 3.1 ± 1 ×10⁻⁶ cm/s | 23.2 ± 4.31 µM | 6.1 ± 1.84 µM | 3.09 ± 0.4 µM | 2.17 µM | Cc1[nH]nc2c1C(c1ccc([N+](=O)[O-])cc1)C(C#N)=C(N)N2 (stereo not drawn) [4i] | 0.96 ± 0.05 T. Eq. | 73.2 ± 2.9% | > 100 µM | > 100 µM | – |
| CNS- | 0.7 ± 0.9 ×10⁻⁶ cm/s | 17.1 ± 2.18 µM | 22.3 ± 3.42 µM | 4.53 ± 2.1 µM | 3.18 µM | Cc1[nH]nc2c1C(c1cccnc1)C(C#N)=C(N)N2 (stereo not drawn) [4k] | 1.03 ± 0.16 T. Eq. | 85.6% and 85.6 ± 5.3% | > 100 µM | > 100 µM | percentage of protection, okadaic acid toxicity [9]: over 50% |
| CNS+ | 5 ± 2.9 ×10⁻⁶ cm/s | 22.9 ± 4.23 µM | 15.6 ± 3.35 µM | 10.2 ± 3.2 µM | 7.14 µM | Cc1[nH]nc2c1C(c1ccncc1)C(C#N)=C(N)N2 (stereo not drawn) [4l] | 1.1 T. Eq. and 1.10 ± 0.13 T. Eq. | 68.9 ± 4.5% | > 100 µM | > 100 µM | percentage of protection, R/O toxicity [8]: 71.6%; survival percentage, high K+ toxicity [10]: 78.9%; percentage of protection, okadaic acid toxicity [9]: over 50% |
